These are literature values, as cited in patent US6955904B2, “Gene coding for quinone oxidoreductase of kluyveromyces marxianus and protein expressed therefrom” (Korea Institute of Science and Technology, priority 2001, dated 2005).

Molecules are shown by their SMILES.

For data set [1], the target named is T1, Arabidopsis thaliana quinone oxidoreductases (Arabidopsis thaliana, UniProt Q9LK88).
T1 sequence (Q9LK88 1-196): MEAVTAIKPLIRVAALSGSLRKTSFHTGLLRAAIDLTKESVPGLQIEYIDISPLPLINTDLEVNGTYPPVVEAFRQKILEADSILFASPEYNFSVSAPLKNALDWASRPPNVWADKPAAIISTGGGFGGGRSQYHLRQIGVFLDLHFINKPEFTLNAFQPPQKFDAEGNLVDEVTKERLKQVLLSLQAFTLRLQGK
The following applies: Sparla et al., FEBS Letters 1999.

Data set [2] addresses human quinone oxidoreductase (Homo sapiens, UniProt P15559). The note with it: Siegel et al., Mol. Pharmacol. 1997.

human quinone oxidoreductase, sequence (P15559 whole entry): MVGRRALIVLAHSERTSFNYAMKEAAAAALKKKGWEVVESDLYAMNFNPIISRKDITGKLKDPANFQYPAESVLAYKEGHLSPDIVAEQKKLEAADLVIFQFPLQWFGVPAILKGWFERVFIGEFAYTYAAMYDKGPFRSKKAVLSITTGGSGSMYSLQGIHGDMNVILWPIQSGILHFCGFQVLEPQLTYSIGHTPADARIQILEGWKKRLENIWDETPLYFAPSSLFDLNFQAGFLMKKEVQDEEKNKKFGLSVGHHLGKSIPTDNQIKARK

As to `CC1=C(C)C(=O)C(C)=C(C)C1=O` [duroquinone], the “rate constant for the reaction” value in data set [1] is 3.2×10^7 M^−1m^−1.
Regarding `CC1=C(C)C(=O)C(CC[C@](C)(O)CCC[C@H](C)CCC[C@H](C)CCCC(C)C)=C(C)C1=O` [α-tocopherol quinone], in data set [2], the “rate constant for the reaction” value is 1.5×10^7 M^−1m^−1.
